Test results as given in patent US20240091390A1, “IMPROVED CHOLECYSTOKININ-2 RECEPTOR (CCK2R) TARGETING FOR DIAGNOSIS AND THERAPY” (Medizinische Universität Innsbruck, priority 2021, published 2024).
One block for each molecule: values may come before it. Starred links: 1 amine or outer side, 2 acyl side, 3 side chain; linkers in the order of their positions; H or OH if unused. Non-standard residues stand in square brackets, D forms with d. Residues, ends and D or L forms follow the SMILES beside them. *: point of attachment. DOTA = O=C(O)CN1CCN(CC(=O)O)CCN(CC(=O)*)CCN(CC(=O)O)CC1; d(γGlu) = O=C(O)[C@@H](CCC(=O)[*:2])N[*:1]; 1Nal = N[C@@H](Cc1cccc2ccccc12)C(=O)O; NMeNle = CCCC[C@H](NC)C(=O)O; GABA = NCCCC(=O)O; βAla = NCCC(=O)O

Assays:
CCK2R = biological target: T1, CCK2R (Homo sapiens, UniProt P32239); test: Competition binding assay against [^125I][3-iodo-Tyr^12,Leu^15]gastrin-I on A431-CCK2R cells; conditions: displacement of [^125I][3-iodo-Tyr^12,Leu^15]gastrin-I, 1 h at RT
T1 construct: expressed in transfected cells; host or cells: A431 cells (A431-CCK2R), provided by Dr. Luigi Aloj
T1 sequence (P32239 1-447): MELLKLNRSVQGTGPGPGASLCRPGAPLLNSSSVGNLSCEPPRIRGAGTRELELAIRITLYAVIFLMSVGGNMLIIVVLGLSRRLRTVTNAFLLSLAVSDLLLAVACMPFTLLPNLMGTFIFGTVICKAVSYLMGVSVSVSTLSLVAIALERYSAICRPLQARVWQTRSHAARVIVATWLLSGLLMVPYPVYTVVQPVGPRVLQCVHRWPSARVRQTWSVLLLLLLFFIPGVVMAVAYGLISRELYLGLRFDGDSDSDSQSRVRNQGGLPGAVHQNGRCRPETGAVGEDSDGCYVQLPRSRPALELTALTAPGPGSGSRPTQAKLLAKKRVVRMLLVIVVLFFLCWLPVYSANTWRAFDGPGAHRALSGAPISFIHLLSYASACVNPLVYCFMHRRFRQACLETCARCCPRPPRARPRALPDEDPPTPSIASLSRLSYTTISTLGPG
Description: Affinity for CCK2R was studied in A431-CCK2R cells. […] Radioiodination of gastrin-I was carried out using the chloramine-T method. Non-carrier-added [^125I][3-iodo-Tyr^12,Leu^15]gastrin-I was obtained by HPLC purification and stored in aliquots at −20° C. Binding assays were carried out in 96-well filter plates (MultiScreenHTS-FB, Merck Group, Darmstadt, Germany) pretreated with 10 mM TRIS/139 mM NaCl pH 7.4 (2×250 μL). For the assay a number of 400,000 A431-CCK2R cells per well was prepared in 35 mM HEPES buffer pH 7.4 containing 10 mM MgCl2, 14 μM bacitracin and 0.5% BSA (a hypotonic solution disturbing the integrity of the cell membranes). The cells were incubated in triplicates with increasing concentrations of the peptidomimetics (0.0003 to 1,000 nM) and [^125I-Tyr^12]gastrin-I (˜25,000 cpm) for 1 h at RT. Incubation was interrupted by filtration of the medium and rapid rinsing with ice-cold 10 mM TRIS/139 mM NaCl pH 7.4 (2×200 μl) and the filters were counted in the gamma-counter. Half maximal inhibitory concentration (IC50) values were calculated following nonlinear regression with Origin software (Microcal Origin 6.1, Northampton, MA) and a representative assay was chosen for comparison.

[1] = cited from earlier work
in vivo [2] = conditions: female, athymic BALB/c nude, mouse, iv, total radioactivity
Description: (§1) For the induction of tumour xenografts, A431-CCK2R and A431-mock cells were injected subcutaneously in athymic BALB/c nude mice (Charles River or Janvier Labs), respectively (2 million cells in 200 μL). When tumours had reached a size of approximately 0.2 ml, biodistribution studies were carried out. Groups of 3-5 mice were injected intravenously via a lateral tail vein with the peptidomimetics, labelled with ^177Lu (0.5-1 MBq and 0.02-0.03 nmol peptidomimetic) or ^68Ga (˜0.5 MBq and 0.02-0.03 nmol peptidomimetic). […] After selected time points post-injection (p.i.) the animals were sacrificed by cervical dislocation, tumours and other tissues (blood, lung, heart, muscle, bone, spleen, intestine, liver, kidneys, stomach, pancreas) were removed, weighed, and their radioactivity measured in a gamma counter.
In further biodistribution studies the tumour uptake and imaging properties of different ^68Ga-labelled pepitdiomimetics was evaluated. For this purpose female athymic BALB/c nude mice (Janvier Labs, Le Genest Saint Isle, France) were inoculated with A431-CCK2R cells (left flank) at an age of 8-10 weeks.

[3] = system: A431-CCK2R tumour xenografts; test: Biodistribution of ^177Lu-labelled peptidomimetics up to 7 days p.i.; conditions: difference not significant
Description: (§2) For the induction of tumour xenografts, A431-CCK2R and A431-mock cells were injected subcutaneously in athymic BALB/c nude mice (Charles River or Janvier Labs), respectively (2 million cells in 200 μL). When tumours had reached a size of approximately 0.2 ml, biodistribution studies were carried out. Groups of 3-5 mice were injected intravenously via a lateral tail vein with the peptidomimetics, labelled with ^177Lu (0.5-1 MBq and 0.02-0.03 nmol peptidomimetic) or ^68Ga (˜0.5 MBq and 0.02-0.03 nmol peptidomimetic). To check for receptor specificity blocking studies using co-injection of a 1000-fold molar excess of the unlabelled peptide (˜20 nmol) together with the administration of the ^177Lu-labelled peptide were performed (FIG. 3). After selected time points post-injection (p.i.) the animals were sacrificed by cervical dislocation, tumours and other tissues (blood, lung, heart, muscle, bone, spleen, intestine, liver, kidneys, stomach, pancreas) were removed, weighed, and their radioactivity measured in a gamma counter.
(§3) The biodistribution profile of ^177Lu-DOTA-MGSA and ^177Lu-DOTA-MGS5 over up to 7 days was studied in female athymic BALB/c nude mice, inoculated with A431-CCK2R cells (left flank) at an age of 6-8 weeks (5 animals per peptidomimetic and for each time point of 1 h, 24 h, 3 d and 7 d). When tumours had reached a size of approximately 0.1-0.2 ml, biodistribution studies were carried out.

[4] = Stability against enzymatic degradation in vivo (radio-HPLC of blood); design: species or system BALB/c mice; conditions: ^177Lu-labelled; for percentage of intact radioligand present in the blood: 30 min p.i.
Description: To further characterise the stability of the radiolabelled peptidomimetic in vivo, metabolic studies were carried out in 5-6-week-old female BALB/c mice (Charles River, Sulzfeld, Germany) injected intravenously with ^177Lu-labelled and ^68Ga-labelled peptidomimetics. All animal experiments were conducted in compliance with the Austrian animal protection laws and with the approval of the Austrian Ministry of Science. To allow monitoring of the metabolites by radio-HPLC, mice were injected with a higher amount of radioactivity (20-40 MBq ^177Lu, corresponding to ˜1 nmol total peptide, or ˜10 MBq ^68Ga, corresponding to ˜1 nmol total peptide) through a lateral tail vein and euthanized by cervical dislocation at selected time points p.i. […] A sample of blood was collected and the degradation was assessed by radio-HPLC. For this purpose blood samples were precipitated with ACN, centrifuged at 2000 g for 2 min and diluted with water (1:1/v:v) prior to HPLC analysis using a Dionex chromatography system including radiodetection and UV detection equipped with a Phenomenex Jupiter Proteo C12 column (90 Å, 4 μm, 250×4.6 mm) column using a water/acetonitrile/0.1% TFA gradient system.

[5] = Biodistribution of ^177Lu-labelled peptidomimetics at 4 h p.i. in xenografted nude mice; conditions: female, athymic BALB/c nude, mouse, iv, total radioactivity
Description: (§4) Biodistribution studies evaluating the tumour uptake of the radiolabelled inventive CCK2R targeting peptide analogues were performed in xenografted nude mice.
as §1
(§5) Results were expressed as percentage of injected activity per gram tissue (% IA/g) and tumour to organ activity ratios were calculated from the activity measured in the dissected tissues (FIGS. 2 and 3).

[6] = system: A431-CCK2R and A431-mock tumour xenografts; conditions: ^177Lu-labelled, 4 h p.i., Klingler M et al., J Med Chem 2020; cited from earlier work
in vivo [7] = conditions: female, athymic BALB/c nude, mouse, iv, total radioactivity; remark: listed apart in the source
Description: as §4, §1, §5

in vivo [8] = conditions: female, athymic BALB/c nude, mouse, iv, total radioactivity; remark: listed apart in the source
Description: as §2, §3

[9] = system: A431-CCK2R tumour xenografts; conditions: mouse, in vivo
Description: as §2, §3

[10] = system: A431-CCK2R tumour xenografts; conditions: ^68Ga-labelled, previously reported (Klingler M et al., J Nucl Med 2019); cited from earlier work
[11] = 10 min after intravenous injection; cited from earlier work
[12] = tumour uptake in A431-CCK2R xenografts

Molecule: [1,4,7,10-tetraazacyclodocecan-1,4,7,10-tetraacetic acid^0,D-Glu^1,DesGlu^2-6]minigastrin [^111In-DOTA-MG11]
biological half-life in vivo [1]: below five minutes

Molecule: CCCC[C@@H](C(=O)N[C@@H](CC(=O)O)C(=O)N[C@@H](Cc1cccc2ccccc12)C(N)=O)N(C)C(=O)[C@H](Cc1c[nH]c2ccccc12)NC(=O)CNC(=O)[C@H](Cc1ccc(O)cc1)NC(=O)[C@H](C)NC(=O)[C@@H](CCC(=O)O)NC(=O)CN1CCN(CC(=O)O)CCN(CC(=O)O)CCN(CC(=O)O)CC1 [^177Lu-DOTA-MGS5, metal not drawn]
uptake levels in the blood, comparison of the two peptidomimetics [3]: somewhat lower uptake levels
percentage intact in the blood ([4]; 10 min p.i.): 85.9%
percentage of intact radioligand present in the blood [4]: 77.0%
tissue uptake at 4 h ([5]; kidney, kidney uptake, ^177Lu-labelled, 4 h p.i.): 3.5 ± 0.9 %ID/g
tissue to tissue ratio at 4 h ([5]; tumour and kidney): 7 ± 2.2

Molecule: CCCC[C@H](NC(=O)[C@H](Cc1c[nH]c2ccccc12)NC(=O)CNC(=O)[C@H](Cc1ccc(O)cc1)NC(=O)[C@H](C)NC(=O)[C@@H](CCC(=O)O)NC(=O)[C@@H](CCC(=O)O)NC(=O)[C@@H](CCC(=O)O)NC(=O)[C@@H](CCC(=O)O)NC(=O)[C@@H](CCC(=O)O)NC(=O)[C@@H](CCC(=O)O)NC(=O)CN1CCN(CC(=O)O)CCN(CC(=O)O)CCN(CC(=O)O)CC1)C(=O)N[C@@H](CC(=O)O)C(=O)N[C@@H](Cc1ccccc1)C(N)=O [^177Lu-PP-F11N, DOTA-DGlu-DGlu-DGlu-DGlu-DGlu-DGlu-Ala-Tyr-Gly-Trp-Nle-Asp-Phe-NH2, metal not drawn]
percentage of intact radioligand present in the blood [4]: 12.7%

Molecule: CCCC[C@@H](C(=O)N[C@@H](CC(=O)O)C(=O)N[C@@H](Cc1cccc2ccccc12)C(N)=O)N(C)C(=O)[C@H](Cc1c[nH]c2ccccc12)NC(=O)CNC(=O)[C@H](Cc1ccc(O)cc1)NC(=O)[C@H](C)NC(=O)[C@@H](CCC(=O)O)NC(=O)CN1CCN(CC(=O)O)CCN(CC(=O)O)CCN(CC(=O)O)CC1 [^68Ga-DOTA-MGS5, metal not drawn]
kidney uptake [10]: 5.71±1.38 % IA/g
tumour uptake [10]: 23.3±4.7 % IA/g
tissue to tissue ratio at 1 h (in vivo [2]): 4.1 ± 0.3

Molecule: CSCC[C@H](NC(=O)[C@H](Cc1c[nH]c2ccccc12)NC(=O)CNC(=O)[C@H](Cc1ccc(O)cc1)NC(=O)[C@H](C)NC(=O)[C@@H](CCC(=O)O)NC(=O)[C@@H](CCC(=O)O)NC(=O)[C@@H](CCC(=O)O)NC(=O)[C@@H](CCC(=O)O)NC(=O)[C@@H](CCC(=O)O)NC(=O)[C@@H](CCC(=O)O)NC(=O)CN1CCN(CC(=O)O)CCN(CC(=O)O)CCN(CC(=O)O)CC1)C(=O)N[C@@H](CC(=O)O)C(=O)N[C@@H](Cc1ccccc1)C(N)=O [^177Lu-PP-F11, metal not drawn]
intact peptide in urine and blood [11]: no intact peptide could be found
percentage of intact radioligand present in the blood [4]: 5.5%

Further lines, with some results ahead:

IC50 (CCK2R): 0.16 ± 0.01 nM
Molecule: CCCC[C@@H](C(=O)N[C@@H](CC(=O)O)C(=O)N[C@@H](Cc1cccc2ccccc12)C(N)=O)N(C)C(=O)[C@H](Cc1c[nH]c2ccccc12)NC(=O)CCNC(=O)CC[C@@H](NC(=O)CC[C@@H](NC(=O)CN1CCN(CC(=O)O)CCN(CC(=O)O)CCN(CC(=O)O)CC1)C(=O)O)C(=O)O [DOTA-MGSC, DOTA-γDGlu-γDGlu-βAla-Trp-(NMe)Nle-Asp-1Nal-NH2] ({DOTA-d(γGlu)-d(γGlu)-βAla}-W[NMeNle]D[1Nal]-NH2)

tissue to tissue ratio at 1 h (in vivo [2]): 14.5 ± 0.6
tissue uptake at 1 h (in vivo [2]; kidney uptake): 2.5 ± 0.1 %ID/g
tissue uptake at 1 h (in vivo [2]; [12]): 36 ± 1.4 %ID/g
Molecule: CCCC[C@@H](C(=O)N[C@@H](CC(=O)O)C(=O)N[C@@H](Cc1cccc2ccccc12)C(N)=O)N(C)C(=O)[C@H](Cc1c[nH]c2ccccc12)NC(=O)CCNC(=O)CC[C@@H](NC(=O)CC[C@@H](NC(=O)CN1CCN(CC(=O)O)CCN(CC(=O)O)CCN(CC(=O)O)CC1)C(=O)O)C(=O)O [^68Ga-DOTA-MGSC, ^68Ga-DOTA-γDGlu-γDGlu-βAla-Trp-(NMe)Nle-Asp-1Nal-NH2, metal not drawn] ({DOTA-d(γGlu)-d(γGlu)-βAla}-W[NMeNle]D[1Nal]-NH2)

tissue to tissue ratio at 1 h (in vivo [2]): 11.2 ± 0.8
tissue uptake at 1 h (in vivo [2]; kidney uptake): 2.4 ± 0.2 %ID/g
tissue uptake at 1 h (in vivo [2]; [12]): 27 ± 0.2 %ID/g
Molecule: CCCC[C@@H](C(=O)N[C@@H](CC(=O)O)C(=O)N[C@@H](Cc1cccc2ccccc12)C(N)=O)N(C)C(=O)[C@H](Cc1c[nH]c2ccccc12)NC(=O)CCNC(=O)CC(O)CNC(=O)CC(O)CNC(=O)CN1CCN(CC(=O)O)CCN(CC(=O)O)CCN(CC(=O)O)CC1 (single isomer, unassigned) [^68Ga-DOTA-MGSA, ^68Ga-DOTA-GABOB-GABOB-βAla-Trp-(NMe)Nle-Asp-1Nal-NH2, metal not drawn]

percentage of intact radioligand present in the blood [4]: 56.8%
Molecule: CCCC[C@@H](C(=O)N[C@@H](CC(=O)O)C(=O)N[C@@H](Cc1cccc2ccccc12)C(N)=O)N(C)C(=O)[C@H](Cc1c[nH]c2ccccc12)NC(=O)CNC(=O)[C@H](Cc1ccc(O)cc1)NC(=O)[C@@H]1CCCN1C(=O)[C@@H](CCC(=O)O)NC(=O)CN1CCN(CC(=O)O)CCN(CC(=O)O)CCN(CC(=O)O)CC1 [^177Lu-DOTA-MGS8, metal not drawn] ({DOTA}-[dE]PYGW[NMeNle]D[1Nal]-NH2; C-terminus assumed)
tumour uptake in A431-CCK2R xenografts [6]: 34.7±9.4 % IA/g

IC50 (CCK2R): 0.31 ± 0.02 nM
Molecule: CCCC[C@@H](C(=O)N[C@@H](CC(=O)O)C(=O)N[C@@H](Cc1cccc2ccccc12)C(N)=O)N(C)C(=O)[C@H](Cc1c[nH]c2ccccc12)NC(=O)CCNC(=O)CCCNC(=O)CCCNC(=O)CN1CCN(CC(=O)O)CCN(CC(=O)O)CCN(CC(=O)O)CC1 [DOTA-MGSB, DOTA-Gaba-Gaba-βAla-Trp-(NMe)Nle-Asp-1Nal-NH2] ({DOTA-GABA-GABA-βAla}-W[NMeNle]D[1Nal]-NH2)

tissue to tissue ratio at 4 h (in vivo [7]): 16.7 ± 2.7
tissue uptake at 4 h (in vivo [7]; kidney uptake): 2 ± 0.3 %ID/g
tissue uptake at 4 h (in vivo [7]; [12]): 32.1 ± 4.1 %ID/g
tissue uptake at 1 h (in vivo [8]): 56.3 ± 9.1 %ID/g
tissue uptake at 168 h (in vivo [8]): 1.2 ± 0.5 %ID/g
accumulation of radioactivity in kidneys compared to ^177Lu-DOTA-MGS5 [9]: significantly lower
Molecule: CCCC[C@@H](C(=O)N[C@@H](CC(=O)O)C(=O)N[C@@H](Cc1cccc2ccccc12)C(N)=O)N(C)C(=O)[C@H](Cc1c[nH]c2ccccc12)NC(=O)CCNC(=O)CC(O)CNC(=O)CC(O)CNC(=O)CN1CCN(CC(=O)O)CCN(CC(=O)O)CCN(CC(=O)O)CC1 (single isomer, unassigned) [^177Lu-DOTA-MGSA, ^177Lu-DOTA-GABOB-GABOB-βAla-Trp-(NMe)Nle-Asp-1Nal-NH2, metal not drawn]

IC50 (CCK2R): 0.21 ± 0.01 nM
Molecule: CCCC[C@@H](C(=O)N[C@@H](CC(=O)O)C(=O)N[C@@H](Cc1cccc2ccccc12)C(N)=O)N(C)C(=O)[C@H](Cc1c[nH]c2ccccc12)NC(=O)CCNC(=O)CC(O)CNC(=O)CC(O)CNC(=O)CN1CCN(CC(=O)O)CCN(CC(=O)O)CCN(CC(=O)O)CC1 (stereo partly drawn) [DOTA-MGSA, DOTA-Gabob-Gabob-βAla-Trp-(NMe)Nle-Asp-1Nal-NH2]
